# Test results: US20050106153A1, “Combined physical and immunotherapy for cancer” (WOUND HEALING OF OKLAHOMA, priority 1995, published 2005)
# Tested on: DMBA-4 metastatic transplantable rat mammary tumor
# Assay: Survival of rats with tumor transplant after laser/sensitizer assisted immunotherapy
# Type: in vivo, Wistar Furth female rats
# Source text: A diode laser was used in this study. The Industrial Semiconductor Laser ISL50F (McDonnell Douglas Aerospace, St. Louis, Mo.), employs a diode array that is electrically powered by a diode driver. The laser emits radiation at wavelength of 808±10 nm, either in pulsed or in continuous mode. Its maximum near infrared power in the available configuration output is 35 watts. The laser is operated with standard electric power (110/120 VAC). A microprocessor monitors and adjusts the laser operating parameters. Laser energy can be delivered through optical fibers of various sizes. A red laser diode emits 670 nm light at 0.9 mW as the aiming beam. The continuous wave mode was employed in this experiment.
# In the experiment, different power and duration of laser irradiation, ranging from 3 minutes at 5 watts to 5 minutes at 15 watts, were used. The output power was measured before, during and after the procedure using a Joule/Watt meter (Ophir Optics, Israel). Two types of fiber optics were used: 600 μm and 1200 μm in diameter.
# Wistar Furth female rats, age 6 to 7 weeks and weighing 100 to 125 grams, were chosen for the study. The model is a metastatic transplantable rat mammary tumor. The tumor strain was the DMBA-4. Tumor cells (about 25,000 cells) were transplanted to the rats by injection into the superficial inguinal area between the skin and the muscle layer. Certain selected rats were injected with tumor cells in both left and right inguinal areas for simultaneous tumor growth.
# The rats were fed a special food, a high saturated fat diet, to facilitate the growth of the tumor. The tumor usually grew to about 1 to 4 cm^3 within 10 to 14 days of tumor transplantation. In most cases the rat tumors were treated before they grew beyond 5 cm^3.
# Before laser treatment, anesthesia was applied (100 μl xylazine and ketamine solution IM) and the hair overlaying the tumor was clipped and shaved. After the treatment, the rats were maintained in separate cages and still fed with the same high fat diet. […]
compound,measurement,setting,value
"CC1(C)C(/C=C/C=C/C=C/C=C2\N(CCCCS(=O)(=O)O)c3ccc4ccccc4c3C2(C)C)=[N+](CCCCS(=O)(=O)[O-])c2ccc3ccccc3c21 [ICG-H2O, indocyanine green]",effect on survival rate,"second group, treated by laser with ICG-H2O solution, vs control",did not show any improvement on the survival rate
same,Survival Days,"whole group, laser treated, data up to Jan. 16, 1995",29.0 ± 3.5 days
same,average survival time after the tumor transplant,"whole group, laser treated, up to Apr. 1, 1995",29.0 days
